Measurements taken from article PMC12249663, “Identification and Screening of Novel Antioxidant Peptides from Yak Skin and Their Protective Effect on H2O2-Induced HepG2 Cells Oxidation” (International Journal of Molecular Sciences, 2025).
Like-named read-outs stand apart in the source and are kept apart here.

Experiments:
HepG2 cells = settings: 2 h, CCK-8, mean ± SD
Experimental: HepG2 cells were cultured in 96-well plates at a density of 5 × 10^4 cells/mL for 24 h. After the medium was removed, 100 µL of complete medium containing different concentrations of H2O2 (800, 1000, 1200, 1400, 1600 µM) was added and incubated for 2 h. After the medium was discarded, cell viability was determined using the CCK-8 assay to establish the optimal H2O2 concentration for inducing an oxidative stress model. The cells without H2O2 treatment were used as control group.

H2O2-induced HepG2 cells [1] = experiment: SOD activity in H2O2-induced HepG2 cells (kit); format: cell-based; settings: for activity of SOD compared with the model group: peptide pretreatment, H2O2-induced HepG2 cells, p < 0.05
Experimental: (§1) After the medium was discarded, 100 μL peptides of different concentrations were added to the wells and cultured for an additional 24 h. After discarding the medium and then being washed, the cells were incubated with 100 μL of an appropriate concentration of H2O2. After incubation for 2 h, the supernatant was collected, and the content of IL-8 was determined strictly, according to the kit instructions. Afterwards, the cells were washed twice with PBS, and then the cell viability was measured. Alternatively, the cells were disrupted with 300 μL of cell lysate and centrifuged at 6000× g at 4 °C for 15 min. The supernatant was collected and stored at −80 °C. The protein concentration was determined using the Bio-Rad DC analysis with BSA as the standard curve. In addition, the contents of SOD, CAT, and MDA in cell lysates were determined in strict accordance with the kit instructions.

H2O2-induced HepG2 cells [2] = experiment: MDA content in H2O2-induced HepG2 cells (kit); format: cell-based; settings: peptide pretreatment 24 h, then 1.4 mM H2O2 2 h; cell lysate; mean ± SD; model group 10.31 ± 0.23
Experimental: as §1

H2O2-induced HepG2 cells [3] = experiment: CAT activity in H2O2-induced HepG2 cells (kit); format: cell-based; settings: for activity of CAT compared with the model group: peptide pretreatment, H2O2-induced HepG2 cells, p < 0.05
Experimental: as §1

H2O2-induced HepG2 cells [4] = experiment: IL-8 content in H2O2-induced HepG2 cells (ELISA kit); format: cell-based; settings: peptide pretreatment 24 h, then 1.4 mM H2O2 2 h; supernatant; p < 0.05; model group 154.02 ± 2.80 pg/mL
Experimental: as §1

[5] = DPPH radical scavenging activity; format: biochemical; settings: 100 μL sample + 100 μL 0.1 mmol/L DPPH in anhydrous ethanol, 30 min dark, room temperature, absorbance 517 nm; sample concentration not given; mean ± SD, at least three repeats
Experimental: Slightly modified according to the previous method, the 100 μL sample solution was mixed with 100 μL 0.1 mmol/L DPPH anhydrous ethanol solution and reacted in the dark at room temperature for 30 min. Then the absorbance was measured at 517 nm. The DPPH free radical scavenging rate of the sample was calculated by the formula below.(1) DPPH radical scavenging rate(%)=(1−A1−A2/A0)×100, where A1 represented the absorbance value the sample reaction with DPPH anhydrous ethanol solution; A2 represented the absorbance value of the sample’s reaction with anhydrous ethanol solution; A0 represented the absorbance of the reaction mixture solution without the sample.

[6] = Hydroxyl radical scavenging activity; format: biochemical; settings: salicylic acid / FeSO4 / H2O2 6.0 mmol/L, 37 °C, 0.5 h, absorbance 510 nm; sample concentration not given; mean ± SD, at least three repeats
Experimental: The hydroxyl radical scavenging activities of samples were performed as in the previous method with slight modifications. Briefly, 6.0 mmol/L salicylic acid solution and FeSO4 solution were prepared, and 0.5 mL of each solution was added into a reaction tube, followed by the addition of a 0.5 mL sample solution and a 0.5 mL H2O2 solution of 6.0 mmol/L. After mixing, the reaction was conducted in a 37 °C water bath for 0.5 h, and then the absorbance was measured at 510 nm. Meanwhile, the sample was replaced with distilled water and used as the blank group, and H2O2 was replaced with distilled water and used as the control group. The hydroxyl radical scavenging rate of the sample was calculated according to the formula below.(3) hydroxyl radical scavenging rate(%)=(1-A0−A1/A)×100, where A0, A1, and A represented the absorbance values of the sample group, blank group, and control group, respectively.

[7] = ABTS radical scavenging activity; format: biochemical; settings: 40 μL sample + 160 μL ABTS working solution, 10 min dark, room temperature, absorbance 734 nm; sample concentration not given; mean ± SD, at least three repeats
Experimental: Slightly modified according to the previous method, 7.4 mmol/L ABTS solution was mixed with the 2.6 mmol/L K2S2O8 solution in equal volume, and then was kept in the dark for 16 h. The ABTS working solution was obtained when the mixture was subsequently diluted with anhydrous ethanol to adjust the absorbance to a range of 0.70 ± 0.02 at 734 nm. Then, the sample solution of 40 μL was mixed with 160 μL ABTS working solution and reacted at room temperature for 10 min in the dark on 96 microporous plates. Meanwhile, the sample was replaced with distilled water as the blank. The absorbance was measured at 734 nm, and the ABTS radical scavenging rate of samples was calculated using the formula below.(2) ABTS radical scavenging rate(%)=[…], where A0 and A1 represented the absorbance values of the blank and sample groups.

Compound | cell viability (HepG2 cells; H2O2 0.8 µM) [%] | cell survival rate (HepG2 cells; H2O2 1.4 mM) [%] | cell viability (HepG2 cells; H2O2 1.6 mM) [%] | activity of SOD compared with the model group (H2O2-induced HepG2 cells [1]) | MDA content (H2O2-induced HepG2 cells [2]) [nmol/mg prot] | activity of CAT compared with the model group (H2O2-induced HepG2 cells [3]) | intracellular IL-8 content compared with the model group (H2O2-induced HepG2 cells [4]) | activity of SOD in cells (H2O2-induced HepG2 cells [1]; peptide pretreatment 24 h, then 1.4 mM H2O2 2 h, cell lysate, mean ± SD, model group 6.17 ± 0.41, control 14.35 ± 0.06) [U/mg prot] | DPPH radical scavenging rate [5] | hydroxyl radical scavenging rate [6] | ABTS radical scavenging rate [7] | activity of CAT in cells (H2O2-induced HepG2 cells [3]; peptide pretreatment 24 h, then 1.4 mM H2O2 2 h, cell lysate, mean ± SD, model group 26.01 ± 1.78, control 60.80 ± 1.10) [U/mg prot]
OO [H2O2, hydrogen peroxide] | 91.77 ± 4.53 | 51.29 ± 3.06 | 37.01 ± 3.20 |  |  |  |  |  |  |  |  | 
GPAGPQGPR [Gly-Pro-Ala-Gly Pro-Gln-Gly-Pro-Arg, antioxidant peptide identified from yak skin hydrolysate YSP-I, synthesized] |  |  |  | significantly more improved | 5.96 ± 0.30 | significantly more improved | significantly reduced |  |  |  |  | 
FGFDGDF [Phe-Gly-Phe-Asp-Gly-Asp-Phe, antioxidant peptide identified from yak skin hydrolysate YSP-I, synthesized] |  |  |  | significantly more improved | 3.945 ± 0.21 | significantly more improved | significantly reduced | 11.83 ± 0.16 | 25.80% ± 1.82% | 44.44% ± 1.94% | 19.15% ± 1.59% | 47.49 ± 1.14
GHNGLDGL [Gly-His-Asn-Gly-Leu-Asp-Gly-Leu, antioxidant peptide identified from yak skin hydrolysate YSP-I, synthesized] |  |  |  | significantly more improved | 4.65 ± 0.39 | significantly more improved | significantly reduced |  |  |  |  | 
LMGPR [Leu-Met-Gly-Pro-Arg, antioxidant peptide identified from yak skin hydrolysate YSP-I, synthesized] |  |  |  | significantly more improved | 5.91 ± 0.27 | significantly more improved | significantly reduced |  | 23.56% ± 2.68% |  |  | 
GFDGD [Gly-Phe-Asp-Gly-Asp, antioxidant peptide identified from yak skin hydrolysate YSP-I, synthesized] |  |  |  | significantly more improved | 5.55 ± 0.16 | significantly more improved | significantly reduced |  |  | 41.61% ± 1.73% |  | 
